Bridges are numbered along the chain shown (N, C = ends).
Columns and labels:
Assay type in all cases: cell-based
[1] = tested on: Gram-positive and Gram-negative bacteria and yeast; assay: Antimicrobial activity of head-to-tail cyclic gomesin, same growth inhibition assay (FIG. 3); settings: tested Gram-positive and Gram-negative bacteria and yeast
Description: (§1) The evaluation of activity against bacteria and fungi was done as described in J. Biol. Chem., 271, 29537-29544 (1996).
On FIG. 1, n.d. means “non-detected” for the tested concentration range of up to 100 μM for gomesin, while n.m. means not measured. The minimal inhibitory concentrations (MICs) of synthetic peptides are expressed as the [A]-[B] interval of concentrations, where [A] is the highest concentration tested at which the microorganisms are growing and [B] is the lowest concentration that causes 100% growth inhibition.
The antimicrobial activity of the head-to-tail cyclic gomesin peptide (SEQ ID No 3) was evaluated using the same assay described above.

Trypanosoma cruzi = assay: Anti-parasitic activity, MTT cell viability test (FIG. 4); settings: incubation one hour at 22° C., 0.1 to 100 μM
Description: (§2) As an example of anti-parasitic activity, the cell viability of Leishmania (leishmania) amazonensis (MRPO/BR/72/M 1841-LV-79) and Trypanosoma cruzi were evaluated, by making use of the MTT [3-(4,5-dimethyltiazolyl-2)-2,5-diphenyl tetrazolio bromide] test as described in J. Immunol. Methods 65, 55-63 (1983) and adapted for Leishmania spp, according to J. Immunol. Methods 127, 11-18 (1990).
(§3) Quantities from 0.1 to 100 μM were tested against Leishmania (leishmania) amazonensis and Trypanosoma cruzi. […] The death of parasites (%) was measured by making use of the MTT assay as described in J. Immunol. Methods 65, 55-63 (1983) and adapted for Leishmania spp, according to J. Immunol. Methods 127, 11-18 (1990).

[2] = tested on: Leishmania (leishmania) amazonensis (MRPO/BR/72/M 1841-LV-79); assay: as above; settings: incubation one hour at 22° C., 0.1 to 100 μM
Description: as §2, §3

[3] = tested on: bacteria, fungi and yeast; assay: Liquid growth inhibition assay, MIC activity spectrum (FIG. 1)
Description: The active fraction against the tested bacterium Micrococcus luteus of hemocytes (AGH2) is additionally purified by filtration chromatography. Elution is made under isocratic conditions with 30% acetonitrile in acidic water at a flow rate of 0.4 ml/min. HPLC (high performance liquid chromatography) purification was made at room temperature. The effluent column was monitored for its absorbance at 225 nm. Fractions corresponding to absorbance peaks were collected, concentrated under vacuum and reconstituted in MilliQ water. Anti-bacterial activity of the collected fractions was monitored by a liquid growth inhibition assay according to J. Biol. Chem., 268, 14893-14897 (1993), using Micrococcus luteus as the test microorganism.
as §1
On FIG. 1, n.d. means “non-detected” for the tested concentration range of up to 100 μM for gomesin, while n.m. means not measured. The minimal inhibitory concentrations (MICs) of synthetic peptides are expressed as the [A]-[B] interval of concentrations, where [A] is the highest concentration tested at which the microorganisms are growing and [B] is the lowest concentration that causes 100% growth inhibition. […]

Substance	antimicrobial activity compared with native gomesin [1]	viability of parasites (death of parasites, %) (Trypanosoma cruzi)	viability of parasites (death of parasites, %) [2]	MIC (minimum inhibitory concentration) ([3]; for half of the 24 susceptible strains) [µM]	strains susceptible to gomesin ([3]; out of the 27 strains tested, concentration range up to 100 μM) [strains]
QCRRLCYKQRCVTYCRGR (cyclo(QCRRLCYKQRCVTYCRGR); disulfide 6-11, 2-15; SMILES CC(C)C[C@@H]1NC(=O)[C@H](CCCNC(=N)N)NC(=O)[C@H](CCCNC(=N)N)NC(=O)[C@@H]2CSSC[C@H](NC(=O)[C@H](Cc3ccc(O)cc3)NC(=O)[C@H]([C@@H](C)O)NC(=O)[C@H](C(C)C)NC(=O)[C@@H]3CSSC[C@H](NC1=O)C(=O)N[C@@H](Cc1ccc(O)cc1)C(=O)N[C@@H](CCCCN)C(=O)N[C@@H](CCC(N)=O)C(=O)N[C@@H](CCCNC(=N)N)C(=O)N3)C(=O)N[C@@H](CCCNC(=N)N)C(=O)NCC(=O)N[C@@H](CCCNC(=N)N)C(=O)N[C@@H](CCC(N)=O)C(=O)N2) [head-to-tail cyclic gomesin, gomesin with closed ends]	identical to the activity of native gomesin	–	–	–	–
ZCRRLCYKQRCVTYCRGRa [gomesin]	–	dependent on the concentration of gomesin	dependent on the concentration of gomesin	≤ 1.6	24
